What all share (assay type): functional
In test [1] the test system is Plasmodium vinckei vinckei. Description: Antimalarial activity against Plasmodium vinckei V52 after 20 mg/kg intraperitoneal dose.
Test [2] is filed under the species Mus musculus. Description: Effective dose required to obtain a parasitaemia of 40% 48 hours after treatment in mice.
In test [3] the test system is Plasmodium vinckei vinckei. Description: Antimalarial activity against Plasmodium vinckei V52 on 10 mg/kg intraperitoneal dose.
In test [4] the test system is Plasmodium vinckei vinckei. Description: Increase in mean survival days of Plasmodium inoculated mice (Mus musculus) after 70 mg/Kg intraperitoneal dose.
For test [5], the system named is Mus musculus. Description: Increase in mean survival days was determined in mice after ip administration of 10 mg/kg. To be noted: route intraperitoneal.
In test [6] the test system is Plasmodium vinckei vinckei. Description: Antimalarial activity against Plasmodium vinckei V52 on 70 mg/kg intraperitoneal dose.
Test [7] relates to Mus musculus. Description: Increase in mean survival days was determined in mice after ip administration of 30 mg/kg. Conditions: route intraperitoneal.
For test [8], the system named is Mus musculus. Description: Increase in mean survival days was determined in mice after ip administration of 20 mg/kg. To be noted: route intraperitoneal.
Test [9] relates to Plasmodium vinckei vinckei. Description: Antimalarial activity against Plasmodium vinckei V52 on 30 mg/kg intraperitoneal dose.
The test system of test [10] is Mus musculus. Description: Antimalarial activity was evaluated against Plasmodium vinckei V52 after intraperitoneal administration at dose 15 mg/kg.
Test [11] deals with Mus musculus. Description: Increase in mean survival days was determined in mice after ip administration of 15 mg/kg. Conditions: route intraperitoneal.

Turning to `Cc1ccc(-n2c3nc(=O)n(C)c(=O)c-3nc3ccccc32)cc1Cl`, the Cured in [1], in test [3] and in [6] was 0% throughout. For the same compound, the ED40 in the test listed under Mus musculus [2] came out at 456 µmol/kg. Moreover, the Mean survival days (in test [4]; in the test with Mus musculus [5]; with Mus musculus [7]) was 0 days throughout.

Take `CSc1ccc(-n2c3nc(=O)n(C)c(=O)c-3nc3ccccc32)cc1`: the Cured in test [1], in test [9], in test [3] and in test [6] was 0% throughout. Besides, the Mean survival days in the test on Mus musculus [8] is 0.5 days; in [4], 0 days; in the test with Mus musculus [5], 0.2 days; in the test on Mus musculus [7], 0.5 days.

On to `CN(C)c1ccc(-n2c3nc(=O)n(C)c(=O)c-3nc3ccccc32)cc1`, for which the Cured in test [1], in test [3] and in test [6] was 0% throughout. Besides, the Mean survival days (in [4]; in the test on Mus musculus [5]; in the test with Mus musculus [7]) was 0 days throughout.

As for `Cn1c(=O)nc2n(-c3ccc(C(=O)O)cc3)c3ccccc3nc-2c1=O`, the Cured in [9], in test [3] and in test [6] was 0% each time. In addition, the Mean survival days in [4] was -0.2 days; in the test on Mus musculus [5] it was 0 days; in the test on Mus musculus [7], 0.2 days.

On to `COc1cccc(-n2c3nc(=O)n(C)c(=O)c-3nc3ccccc32)c1`, for which the Cured in [1], in [9], in [3] and in [6] was 0% throughout. Besides, the Mean survival days (in the test with Mus musculus [8]; in test [4]; in the test on Mus musculus [5]; in the test with Mus musculus [7]) was 0 days each time.

For `CCc1ccc(-n2c3nc(=O)n(C)c(=O)c-3nc3ccccc32)cc1`, the Cured in [1], in test [9], in [3] and in test [6] was 0% each time. Besides, the Mean survival days was 0.3 days with Mus musculus [8], -0.4 days in test [4], 0.2 days in the test on Mus musculus [5] and 0 days with Mus musculus [7]. In the test filed under Mus musculus [2], this compound had an ED40 of 281 µmol/kg.

Regarding `Cn1c(=O)nc2n(-c3ccc(O)cc3)c3ccccc3nc-2c1=O`, the Cured in [1], in [3] and in [6] was 0% throughout. For the same compound, the Mean survival days in [4] amounted to 0 days; in the test with Mus musculus [5], 0 days; in the test with Mus musculus [7], 0.2 days.

As to `CSc1cccc(-n2c3nc(=O)n(C)c(=O)c-3nc3ccccc32)c1`, the Cured in [1], in [9], in [3] and in [6] was 0% throughout. Further, the Mean survival days in the test with Mus musculus [8] is 0 days; in [4] it was 0 days; in the test with Mus musculus [5], 0.2 days; in the test with Mus musculus [7] it was 0 days.

Turning to `Cn1c(=O)nc2n(-c3ccc(Cl)c(C(F)(F)F)c3)c3ccccc3nc-2c1=O`, the Cured (in [1]; in test [9]; in the test on Mus musculus [10]; in test [3]; in test [6]) was 0% throughout. In addition, the Mean survival days with Mus musculus [8] amounted to 0 days; in the test on Mus musculus [11] it was 0 days; in test [4] it was 0.2 days; in the test with Mus musculus [5], 0 days; in the test on Mus musculus [7] it was 0 days.
